Data from US9828385B2, “Spiro-oxazolones” (Hoffmann-La Roche Inc., priority 2014, dated 2017).

What follows are molecules tested against T1, human V1a receptor (Homo sapiens, UniProt P37288) (assay: human V1a receptor binding studies (3H-Vasopressin, SPA beads)). Conditions: membranes of HEK293 cells transiently transfected with human V1a receptor, Ki by Cheng-Prussoff from IC50, read-out: pKi hV1a (converted).
T1 construct: expressed in transfected cells; host or cells: HEK293 cells, transiently transfected; cell membranes
T1 sequence (P37288 whole entry): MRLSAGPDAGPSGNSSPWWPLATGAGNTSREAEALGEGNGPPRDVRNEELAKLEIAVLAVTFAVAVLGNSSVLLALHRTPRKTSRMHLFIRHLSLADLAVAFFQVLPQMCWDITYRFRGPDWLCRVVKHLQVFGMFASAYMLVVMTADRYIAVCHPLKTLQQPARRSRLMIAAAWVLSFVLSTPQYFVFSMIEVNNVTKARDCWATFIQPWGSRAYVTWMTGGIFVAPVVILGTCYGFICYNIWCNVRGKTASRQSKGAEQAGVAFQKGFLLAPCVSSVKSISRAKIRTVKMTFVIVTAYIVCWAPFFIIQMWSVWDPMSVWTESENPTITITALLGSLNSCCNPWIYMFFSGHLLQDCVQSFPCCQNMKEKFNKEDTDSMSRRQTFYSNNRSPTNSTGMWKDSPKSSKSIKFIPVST
In short: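 Membranes from transiently transfected HEK293 cells expressing cloned human V1a receptor, on yttrium silicate SPA beads, competed against 4 nM 3H-vasopressin (added stock concentration) in Tris buffer with NaCl, KCl, CaCl2, MgCl2 for 1 h at room temperature. Nonspecific binding with cold vasopressin; IC50 by nonlinear fit, Ki via Cheng-Prusoff.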
`CC1(C(F)(F)c2ccc(C(F)F)cc2)OC(N2CCC3(CC2)OCc2ccccc23)=NC1=O` (stereo not shown) [Example 89, 5-{[4-(Difluoromethyl)phenyl](difluoro)methyl}-5-methyl-2-(1′H,3H-spiro[2-benzofuran-1,4′-piperidin]-1′-yl)-1,3-oxazol-4(5H)-one] gave a Ki of 158 nM. `CC1(C(O)c2ccccc2)OC(N2CCC3(CC2)OCc2ccccc23)=NC1=O` (stereo not shown) [Example 90, 5-[Hydroxy(phenyl)methyl]-5-methyl-2-(1′H,3H-spiro[2-benzofuran-1,4′-piperidin]-1′-yl)-1,3-oxazol-4(5H)-one] gave a Ki of 126 nM. For `CC1(C(O)c2ccc(Cl)cc2)OC(N2CCC3(CC2)OCc2ccccc23)=NC1=O` (stereo not shown) [Example 91, 5-[(4-Chlorophenyl)(hydroxy)methyl]-5-methyl-2-(1′H,3H-spiro[2-benzofuran-1,4′-piperidin]-1′-yl)-1,3-oxazol-4(5H)-one], the Ki was 25.1 nM. `CC1(C(F)c2ccc(Cl)cc2)OC(N2CCC3(CC2)OCc2ccccc23)=NC1=O` (stereo not shown) [Example 92, 5-[(4-Chlorophenyl)(fluoro)methyl]-5-methyl-2-(1′H,3H-spiro[2-benzofuran-1,4′-piperidin]-1′-yl)-1,3-oxazol-4(5H)-one] was tested, and the Ki was 31.6 nM. `CC1(C(O)c2ccc(Cl)cc2)OC(N2CCC3(CC2)OC(=O)c2ccccc23)=NC1=O` (stereo not shown) [Example 93, 1′-{5-[(4-Chlorophenyl)(hydroxy)methyl]-5-methyl-4-oxo-4,5-dihydro-1,3-oxazol-2-yl}-3H-spiro[2-benzofuran-1,4′-piperidin]-3-one] showed a Ki of 126 nM. Work on `O=C1N=C(N2CCC3(CC2)OCc2ccccc23)OC1(Cc1ccc(Cl)cc1)Cc1ccc(Cl)cc1` [Example 94, 5,5-bis(4-Chlorobenzyl)-2-(1′H,3H-spiro[2-benzofuran-1,4′-piperidin]-1′-yl)-1,3-oxazol-4(5H)-one] yielded a Ki of 1 nM. For `O=C1OC2(CCN(C3=NC(=O)C(Cc4ccc(Cl)cc4)(Cc4ccc(Cl)cc4)O3)CC2)c2ccccc21` [Example 95, 1′-[5,5-Bis(4-chlorobenzyl)-4-oxo-4,5-dihydro-1,3-oxazol-2-yl]-3H-spiro[2-benzofuran-1,4′-piperidin]-3-one], the Ki was 5.01 nM. `CC1(CN2CCCC2)OC(N2CCC3(CC2)OCc2ccccc23)=NC1=O` (stereo not shown) [Example 98, 5-Methyl-5-(pyrrolidin-1-ylmethyl)-2-(1′H,3H-spiro[2-benzofuran-1,4′-piperidin]-1′-yl)-1,3-oxazol-4(5H)-one] was tested, and the Ki was 251 nM. `CC1(CC2CCCO2)OC(N2CCC3(CC2)OCc2ccccc23)=NC1=O` (stereo not shown) [Example 101, 5-Methyl-2-(1′H,3H-spiro[2-benzofuran-1,4′-piperidin]-1′-yl)-5-(tetrahydrofuran-2-ylmethyl)-1,3-oxazol-4(5H)-one] showed a Ki of 200 nM. `O=C1N=C(N2CCC3(CC2)OCc2ccccc23)OC12CCCC2` [Example 112, 2-(3H-Spiro[isobenzofuran-1,4′-piperidine]-1′-yl)-1-oxa-3-azaspiro[4.4]non-2-en-4-one] was tested, and the Ki was 158 nM. `O=C1N=C(N2CCC3(CC2)OCc2ccccc23)OC12CC=CC2` [Example 113, 2-(1′H,3H-Spiro[2-benzofuran-1,4′-piperidin]-1′-yl)-1-oxa-3-azaspiro[4.4]nona-2,7-dien-4-one] showed a Ki of 100 nM. For `CC1=CCC2(C1)OC(N1CCC3(CC1)OCc1ccccc13)=NC2=O` (stereo not shown) [Example 114, 7-Methyl-2-(1′H,3H-spiro[2-benzofuran-1,4′-piperidin]-1′-yl)-1-oxa-3-azaspiro[4.4]nona-2,7-dien-4-one], the Ki was 12.6 nM. Work on `CC1=C(C)CC2(C1)OC(N1CCC3(CC1)OCc1ccccc13)=NC2=O` [Example 115, 7,8-Dimethyl-2-(1′H,3H-spiro[2-benzofuran-1,4′-piperidin]-1′-yl)-1-oxa-3-azaspiro[4.4]nona-2,7-dien-4-one] yielded a Ki of 10 nM. In the case of `CCOC(=O)C1=CCC2(C1)OC(N1CCC3(CC1)OCc1ccccc13)=NC2=O` (stereo not shown) [Example 116, Ethyl 4-oxo-2-(1′H,3H-spiro[2-benzofuran-1,4′-piperidin]-1′-yl)-1-oxa-3-azaspiro[4.4]nona-2,7-diene-7-carboxylate], the Ki is reported as 126 nM. `O=C1N=C(N2CCC3(CC2)OCc2ccccc23)OC12CC=C(C(F)(F)F)C2` (stereo not shown) [Example 117, 2-(1′H,3H-Spiro[2-benzofuran-1,4′-piperidin]-1′-yl)-7-(trifluoromethyl)-1-oxa-3-azaspiro[4.4]nona-2,7-dien-4-one] showed a Ki of 1.26 nM. `CC(C)(C)[Si](C)(C)OCC1=CCC2(C1)OC(N1CCC3(CC1)OCc1ccccc13)=NC2=O` (stereo not shown) [Example 118, 7-({[tert-Butyl(dimethyl)silyl]oxy}methyl)-2-(1′H,3H-spiro[2-benzofuran-1,4′-piperidin]-1′-yl)-1-oxa-3-azaspiro[4.4]nona-2,7-dien-4-one] showed a Ki of 316 nM. For `O=C1N=C(N2CCC3(CC2)OCc2ccccc23)OC12CC=C(CO)C2` (stereo not shown) [Example 119, 7-(Hydroxymethyl)-2-(3H-spiro[isobenzofuran-1,4′-piperidine]-1′-yl)-1-oxa-3-azaspiro[4.4]nona-2,7-dien-4-one], the Ki was 1000 nM. With `O=C1N=C(N2CCC3(CC2)OCc2ccccc23)OC12CCCCC2` [Example 123, 2-(1′H,3H-Spiro[2-benzofuran-1,4′-piperidin]-1′-yl)-1-oxa-3-azaspiro[4.5]dec-2-en-4-one] the Ki was 10 nM. `O=C1OC2(CCN(C3=NC(=O)C4(CCCCC4)O3)CC2)c2ccccc21` [Example 124, 1′-(4-Oxo-1-oxa-3-azaspiro[4.5]dec-2-en-2-yl)-3H-spiro[2-benzofuran-1,4′-piperidin]-3-one] was tested, and the Ki was 158 nM. Molecule `O=C1N=C(N2CCC3(CC2)OCc2ccccc23)OC12CCCOC2` (stereo not shown) [Example 125, 2-(1′H,3H-Spiro[2-benzofuran-1,4′-piperidin]-1′-yl)-1,7-dioxa-3-azaspiro[4.5]dec-2-en-4-one] has a Ki of 200 nM. Work on `O=C1N=C(N2CCC3(CC2)OCc2ccccc23)OC12CCC(F)(F)CC2` [Example 130, 8,8-Difluoro-2-(1′H,3H-spiro[2-benzofuran-1,4′-piperidin]-1′-yl)-1-oxa-3-azaspiro[4.5]dec-2-en-4-one] yielded a Ki of 6.31 nM. With `O=C1OC2(CCN(C3=NC(=O)C4(CCC(F)(F)CC4)O3)CC2)c2ccccc21` [Example 131, 1′-(8,8-Difluoro-4-oxo-1-oxa-3-azaspiro[4.5]dec-2-en-2-yl)-3H-spiro[2-benzofuran-1,4′-piperidin]-3-one] the Ki was 50.1 nM. `O=C1N=C(N2CCC3(CC2)OCc2ccccc23)OC12CCSCC2` [Example 132, 2-(1′H,3H-Spiro[2-benzofuran-1,4′-piperidin]-1′-yl)-1-oxa-8-thia-3-azaspiro[4.5]dec-2-en-4-one] was tested, and the Ki was 15.8 nM. Molecule `O=C1N=C(N2CCC3(CC2)OCc2ccccc23)OC12CCS(=O)(=O)CC2` [Example 133, 2-(1′H,3H-Spiro[2-benzofuran-1,4′-piperidin]-1′-yl)-1-oxa-8-thia-3-azaspiro[4.5]dec-2-en-4-one 8,8-dioxide] has a Ki of 126 nM. `CC(C)(C)OC(=O)N1CCC2(CC1)OC(N1CCC3(CC1)OCc1ccccc13)=NC2=O` [Example 134, tert-Butyl 4-oxo-2-(1′H,3H-spiro[2-benzofuran-1,4′-piperidin]-1′-yl)-1-oxa-3,8-diazaspiro[4.5]dec-2-ene-8-carboxylate] showed a Ki of 158 nM. `O=C1N=C(N2CCC3(CC2)OCc2ccccc23)OC12CCN(Cc1ccccc1)CC2` [Example 135, 8-Benzyl-2-(1′H,3H-spiro[2-benzofuran-1,4′-piperidin]-1′-yl)-1-oxa-3,8-diazaspiro[4.5]dec-2-en-4-one] gave a Ki of 398 nM. Molecule `O=C1N=C(N2CCC3(CC2)OCc2ccccc23)OC12CCN(CC(F)F)CC2` [Example 136, 8-(2,2-Difluoroethyl)-2-(1′H,3H-spiro[2-benzofuran-1,4′-piperidin]-1′-yl)-1-oxa-3,8-diazaspiro[4.5]dec-2-en-4-one] has a Ki of 316 nM. `CC(C)(C)OC(=O)N1Cc2ccccc2CC2(C1)OC(N1CCC3(CC1)OCc1ccccc13)=NC2=O` (stereo not shown) [Example 137, tert-Butyl 4′-oxo-2′-(1′H,3H-spiro[2-benzofuran-1,4′-piperidin]-1′-yl)-1,5-dihydro-4′H-spiro[2-benzazepine-4,5′-[1,3]oxazole]-2(3H)-carboxylate] was tested, and the Ki was 1.58 nM. In the case of `O=C1N=C(N2CCC3(CC2)OCc2ccccc23)OC12CNCc1ccccc1C2` (stereo not shown) [Example 138, 2′-(1′H,3H-Spiro[2-benzofuran-1,4′-piperidin]-1′-yl)-1,2,3,5-tetrahydro-4′H-spiro[2-benzazepine-4,5′-[1,3]oxazol]-4′-one], the Ki is reported as 6.31 nM. `CN1Cc2ccccc2CC2(C1)OC(N1CCC3(CC1)OCc1ccccc13)=NC2=O` (stereo not shown) [Example 139, 2-Methyl-2′-(1′H,3H-spiro[2-benzofuran-1,4′-piperidin]-1′-yl)-1,2,3,5-tetrahydro-4′H-spiro[2-benzazepine-4,5′-[1,3]oxazol]-4′-one] was tested, and the Ki was 1.26 nM. `O=C1N=C(N2CCC3(CC2)OCc2ccccc23)OC12CC1CCCCCC1C2` (stereo not shown) [Example 140, 2′-(1′H,3H-Spiro[2-benzofuran-1,4′-piperidin]-1′-yl)-3,3a,4,5,6,7,8,8a-octahydro-1H,4′H-spiro[azulene-2,5′-[1,3]oxazol]-4′-one] gave a Ki of 0.631 nM. For `O=C1N=C(N2CCC3(CC2)OCc2ccccc23)O[C@]12C[C@H]1CCCC[C@H]1C2` [Example 141, 2′-(1′H,3H-Spiro[2-benzofuran-1,4′-piperidin]-1′-yl)-1,3,3a,4,5,6,7,7a-octahydro-4′H-spiro[indene-2,5′-[1,3]oxazol]-4′-one], the Ki was 0.501 nM. `O=C1C=C2CC3(CC2C1)OC(N1CCC2(CC1)OCc1ccccc12)=NC3=O` (stereo not shown) [Example 142, 2-(1′H,3H-Spiro[2-benzofuran-1,4′-piperidin]-1′-yl)-3a′,4′-dihydro-1′H,4H-spiro[1,3-oxazole-5,2′-pentalene]-4,5′(3′H)-dione] was tested, and the Ki was 158 nM. For `O=C1C[C@@H]2CC3(C[C@@H]2C1)OC(N1CCC2(CC1)OCc1ccccc12)=NC3=O` (stereo partly shown) [Example 143, 2-(1′H,3H-Spiro[2-benzofuran-1,4′-piperidin]-1′-yl)-3a′,4′,6′,6a′-tetrahydro-1′H,4H-spiro[1,3-oxazole-5,2′-pentalene]-4,5′(3′H)-dione], the Ki was 100 nM.
